According to ChEMBL document CHEMBL2390858, “Design, synthesis and anti-tuberculosis activity of 1-adamantyl-3-heteroaryl ureas with improved in vitro pharmacokinetic properties” (Bioorg Med Chem, 2013):
Values after ≈ are worked out from the molar mass of the structure shown.

What was measured:
[1] = molecular target: T1, Bifunctional epoxide hydrolase 2 (Homo sapiens, UniProt P34913)
T1 sequence (P34913 whole entry): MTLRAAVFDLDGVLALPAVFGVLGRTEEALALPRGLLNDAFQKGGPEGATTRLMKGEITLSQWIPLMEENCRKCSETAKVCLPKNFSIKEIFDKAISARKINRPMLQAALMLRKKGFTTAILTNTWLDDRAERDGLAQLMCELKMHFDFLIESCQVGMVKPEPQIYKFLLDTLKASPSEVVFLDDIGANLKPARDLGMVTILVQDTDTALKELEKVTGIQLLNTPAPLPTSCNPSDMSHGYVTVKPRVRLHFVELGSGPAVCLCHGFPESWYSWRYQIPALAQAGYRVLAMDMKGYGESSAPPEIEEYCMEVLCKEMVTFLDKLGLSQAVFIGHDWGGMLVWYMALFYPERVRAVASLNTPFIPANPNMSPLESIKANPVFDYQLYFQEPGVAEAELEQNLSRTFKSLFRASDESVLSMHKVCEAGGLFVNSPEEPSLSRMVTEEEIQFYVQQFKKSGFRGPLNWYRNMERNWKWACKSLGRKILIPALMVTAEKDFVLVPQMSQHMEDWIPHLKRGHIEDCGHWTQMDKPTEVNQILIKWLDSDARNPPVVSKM

Vero = assay: cells; settings: Chlorocebus sabaeus, 72 h
Pseudomonas aeruginosa = assay: microbe, parasite or virus in culture
Proteus vulgaris = assay: microbe, parasite or virus in culture
Proteus mirabilis = assay: microbe, parasite or virus in culture
Klebsiella pneumoniae = assay: microbe, parasite or virus in culture
Escherichia coli = assay: microbe, parasite or virus in culture; settings: K-12
Burkholderia cepacia = assay: microbe, parasite or virus in culture
Bacillus subtilis = assay: microbe, parasite or virus in culture
Acinetobacter = assay: microbe, parasite or virus in culture
Streptococcus pneumoniae = assay: microbe, parasite or virus in culture
Streptococcus pyogenes = assay: microbe, parasite or virus in culture
Staphylococcus aureus [2] = assay: microbe, parasite or virus in culture; settings: NRS70
Staphylococcus aureus [3] = assay: microbe, parasite or virus in culture; settings: ATCC 29213
Enterococcus faecalis = assay: microbe, parasite or virus in culture
Bacillus anthracis = assay: microbe, parasite or virus in culture; settings: Sterne
[4] = test system: Mycobacterium tuberculosis; assay: microbe, parasite or virus in culture; settings: H37Rv, 168 h
Plasma = settings: human, 4 h, 10 µM
[5] = buffer
[6] = Metabolic stability in CD-1 mouse liver microsomes assessed as compound remaining after 90 mins in presence of NADPH; assay type: ADME, Microsome; settings: read-out: Stability
in vitro = settings: human, plasma

`O=C(Nc1nc2ccccc2s1)NC12CC3CC(CC(C3)C1)C2` showed an IC50 [1] of 3 nM, an IC50 (Vero) of 17 µg/mL (≈ 51.9 µM) and an MIC (Pseudomonas aeruginosa) greater than 200 µg/mL. It also gave an MIC (Proteus vulgaris) greater than 200 µg/mL, an MIC (Proteus mirabilis) greater than 200 µg/mL and an MIC (Klebsiella pneumoniae) greater than 200 µg/mL. It also gave an MIC (Escherichia coli) greater than 200 µg/mL, an MIC (Burkholderia cepacia) greater than 200 µg/mL and an MIC (Bacillus subtilis) of 200 µg/mL (≈ 611 µM). The MIC (Acinetobacter) was greater than 200 µg/mL, the MIC (Streptococcus pneumoniae) was greater than 200 µg/mL and the MIC (Streptococcus pyogenes) was greater than 200 µg/mL. For the same compound, the MIC (Staphylococcus aureus [2]) was greater than 200 µg/mL, the MIC (Staphylococcus aureus [3]) was greater than 200 µg/mL and the MIC (Enterococcus faecalis) was greater than 200 µg/mL. For the same compound, the MIC (Bacillus anthracis) was 200 µg/mL (≈ 611 µM) and the MIC [4] was 0.78 µg/mL (≈ 2.38 µM).

`CC(C)c1nnc(NC(=O)NC23CC4CC(CC(C4)C2)C3)o1` showed an IC50 [1] of 557 nM, a PPB (Plasma) of 99.3% and a solubility ([5]; 18 h, pH 7.4) of 9.54 µg/mL (≈ 31.3 µM). The IC50 (Vero) was 11 µg/mL (≈ 36.1 µM), the MIC (Pseudomonas aeruginosa) was greater than 200 µg/mL and the MIC (Proteus vulgaris) was greater than 200 µg/mL. It also gave an MIC (Proteus mirabilis) greater than 200 µg/mL, an MIC (Klebsiella pneumoniae) greater than 200 µg/mL and an MIC (Escherichia coli) greater than 200 µg/mL. It also gave an MIC (Burkholderia cepacia) greater than 200 µg/mL, an MIC (Bacillus subtilis) greater than 200 µg/mL and an MIC (Acinetobacter) greater than 200 µg/mL. It also gave an MIC (Streptococcus pneumoniae) greater than 200 µg/mL, an MIC (Streptococcus pyogenes) greater than 200 µg/mL and an MIC (Staphylococcus aureus [2]) greater than 200 µg/mL. The MIC (Staphylococcus aureus [3]) was greater than 200 µg/mL, the MIC (Enterococcus faecalis) was greater than 200 µg/mL and the MIC (Bacillus anthracis) was greater than 200 µg/mL. For the same compound, the MIC [4] was 1.56 µg/mL (≈ 5.12 µM).

Compound `CC(C)(C)c1cc(NC(=O)NC2C3CC4CC(C3)CC2C4)no1` (stereo not drawn) has a remaining at […] [6] greater than 30%, an IC50 [1] of 73 nM and a PPB (Plasma) of 95.2%. It also gave a solubility ([5]; 18 h, pH 7.4) of 22.7 µg/mL (≈ 71.5 µM), an IC50 (Vero) of 7 µg/mL (≈ 22.1 µM) and an MIC (Pseudomonas aeruginosa) greater than 200 µg/mL. The MIC (Proteus vulgaris) was greater than 200 µg/mL, the MIC (Proteus mirabilis) was greater than 200 µg/mL and the MIC (Klebsiella pneumoniae) was greater than 200 µg/mL. For the same compound, the MIC (Escherichia coli) was greater than 200 µg/mL, the MIC (Burkholderia cepacia) was greater than 200 µg/mL and the MIC (Bacillus subtilis) was greater than 200 µg/mL. For the same compound, the MIC (Acinetobacter) was greater than 200 µg/mL, the MIC (Streptococcus pneumoniae) was greater than 200 µg/mL and the MIC (Streptococcus pyogenes) was greater than 200 µg/mL. The MIC (Staphylococcus aureus [2]) was 200 µg/mL (≈ 630 µM), the MIC (Staphylococcus aureus [3]) was greater than 200 µg/mL and the MIC (Enterococcus faecalis) was 6.25 µg/mL (≈ 19.7 µM). The MIC (Bacillus anthracis) was greater than 200 µg/mL and the MIC [4] was 0.1 µg/mL (≈ 0.315 µM).

With `Cc1cc(NC(=O)NC2C3CC4CC(C3)CC2C4)no1` (stereo not drawn) the IC50 [1] was 5 nM, the solubility ([5]; 18 h, pH 7.4) was 25.5 µg/mL (≈ 92.6 µM) and the IC50 (Vero) was greater than 48 µg/mL. For the same compound, the MIC (Pseudomonas aeruginosa) was greater than 200 µg/mL, the MIC (Proteus vulgaris) was greater than 200 µg/mL and the MIC (Proteus mirabilis) was greater than 200 µg/mL. For the same compound, the MIC (Klebsiella pneumoniae) was greater than 200 µg/mL, the MIC (Escherichia coli) was greater than 200 µg/mL and the MIC (Burkholderia cepacia) was greater than 200 µg/mL. It also gave an MIC (Bacillus subtilis) greater than 200 µg/mL, an MIC (Acinetobacter) greater than 200 µg/mL and an MIC (Streptococcus pneumoniae) greater than 200 µg/mL. The MIC (Streptococcus pyogenes) was greater than 200 µg/mL, the MIC (Staphylococcus aureus [2]) was greater than 200 µg/mL and the MIC (Staphylococcus aureus [3]) was greater than 200 µg/mL. The MIC (Enterococcus faecalis) was greater than 200 µg/mL, the MIC (Bacillus anthracis) was greater than 200 µg/mL and the MIC [4] was 6.25 µg/mL (≈ 22.7 µM).

Compound `CC(C)c1nnc(NC(=O)NC2C3CC4CC(C3)CC2C4)o1` (stereo not drawn) has a remaining at […] [6] greater than 30%, an IC50 [1] of 843 nM and a PPB (Plasma) of 98%. The IC50 (Vero) was 33 µg/mL (≈ 108 µM), the MIC (Pseudomonas aeruginosa) was greater than 200 µg/mL and the MIC (Proteus vulgaris) was greater than 200 µg/mL. It also gave an MIC (Proteus mirabilis) greater than 200 µg/mL, an MIC (Klebsiella pneumoniae) greater than 200 µg/mL and an MIC (Escherichia coli) greater than 200 µg/mL. For the same compound, the MIC (Burkholderia cepacia) was greater than 200 µg/mL, the MIC (Bacillus subtilis) was 100 µg/mL (≈ 329 µM) and the MIC (Acinetobacter) was greater than 200 µg/mL. The MIC (Streptococcus pneumoniae) was 100 µg/mL (≈ 329 µM), the MIC (Streptococcus pyogenes) was 200 µg/mL (≈ 657 µM) and the MIC (Staphylococcus aureus [2]) was greater than 200 µg/mL. For the same compound, the MIC (Staphylococcus aureus [3]) was greater than 200 µg/mL, the MIC (Enterococcus faecalis) was 100 µg/mL (≈ 329 µM) and the MIC (Bacillus anthracis) was 100 µg/mL (≈ 329 µM). For the same compound, the MIC [4] was 1.56 µg/mL (≈ 5.12 µM).

`O=C(Nc1nnc(C2CCC2)o1)NC1C2CC3CC(C2)CC1C3` (stereo not drawn) gave a remaining at […] [6] greater than 30%, an IC50 [1] of 382 nM and an IC50 (Vero) of 36 µg/mL (≈ 114 µM). It also gave an MIC (Pseudomonas aeruginosa) greater than 200 µg/mL, an MIC (Proteus vulgaris) greater than 200 µg/mL and an MIC (Proteus mirabilis) greater than 200 µg/mL. The MIC (Klebsiella pneumoniae) was greater than 200 µg/mL, the MIC (Escherichia coli) was greater than 200 µg/mL and the MIC (Burkholderia cepacia) was 50 µg/mL (≈ 158 µM). It also gave an MIC (Bacillus subtilis) of 50 µg/mL (≈ 158 µM), an MIC (Acinetobacter) greater than 200 µg/mL and an MIC (Streptococcus pneumoniae) of 100 µg/mL (≈ 316 µM). The MIC (Streptococcus pyogenes) was 100 µg/mL (≈ 316 µM), the MIC (Staphylococcus aureus [2]) was greater than 200 µg/mL and the MIC (Staphylococcus aureus [3]) was greater than 200 µg/mL. The MIC (Enterococcus faecalis) was greater than 200 µg/mL, the MIC (Bacillus anthracis) was 25 µg/mL (≈ 79 µM) and the MIC [4] was 0.78 µg/mL (≈ 2.47 µM).

Compound `O=C(Nc1ncco1)NC12CC3CC(CC(C3)C1)C2` has an IC50 [1] of 948 nM, a solubility ([5]; 18 h, pH 7.4) of 4.4 µg/mL (≈ 16.8 µM) and an IC50 (Vero) of 22 µg/mL (≈ 84.2 µM). It also gave an MIC (Pseudomonas aeruginosa) greater than 200 µg/mL, an MIC (Proteus vulgaris) greater than 200 µg/mL and an MIC (Proteus mirabilis) greater than 200 µg/mL. For the same compound, the MIC (Klebsiella pneumoniae) was greater than 200 µg/mL, the MIC (Escherichia coli) was greater than 200 µg/mL and the MIC (Burkholderia cepacia) was greater than 200 µg/mL. The MIC (Bacillus subtilis) was greater than 200 µg/mL, the MIC (Acinetobacter) was greater than 200 µg/mL and the MIC (Streptococcus pneumoniae) was greater than 200 µg/mL. It also gave an MIC (Streptococcus pyogenes) greater than 200 µg/mL, an MIC (Staphylococcus aureus [2]) greater than 200 µg/mL and an MIC (Staphylococcus aureus [3]) greater than 200 µg/mL. For the same compound, the MIC (Enterococcus faecalis) was greater than 200 µg/mL, the MIC (Bacillus anthracis) was greater than 200 µg/mL and the MIC [4] was 6.25 µg/mL (≈ 23.9 µM).

`CC(C)(C)c1cc(NC(=O)NC23CC4CC(CC(C4)C2)C3)no1` showed a remaining at […] [6] greater than 30%, an IC50 [1] of 56 nM and an IC50 (Vero) of 6 µg/mL (≈ 18.9 µM). The MIC (Pseudomonas aeruginosa) was greater than 200 µg/mL, the MIC (Proteus vulgaris) was greater than 200 µg/mL and the MIC (Proteus mirabilis) was greater than 200 µg/mL. The MIC (Klebsiella pneumoniae) was greater than 200 µg/mL, the MIC (Escherichia coli) was 100 µg/mL (≈ 315 µM) and the MIC (Bacillus subtilis) was greater than 200 µg/mL. For the same compound, the MIC (Acinetobacter) was greater than 200 µg/mL, the MIC (Streptococcus pneumoniae) was greater than 200 µg/mL and the MIC (Streptococcus pyogenes) was greater than 200 µg/mL. It also gave an MIC (Staphylococcus aureus [2]) of 200 µg/mL (≈ 630 µM), an MIC (Staphylococcus aureus [3]) of 100 µg/mL (≈ 315 µM) and an MIC (Enterococcus faecalis) of 100 µg/mL (≈ 315 µM). It also gave an MIC (Bacillus anthracis) greater than 200 µg/mL and an MIC [4] of 1.56 µg/mL (≈ 4.91 µM).

Work on `COC(=O)c1ccc(NC(=O)NC23CC4CC(CC(C4)C2)C3)cc1O` yielded a solubility ([5]; pH 7.4, 18 h) of 0.51 µg/mL (≈ 1.48 µM) and a fraction unbound at 4 h, 10 µM (in vitro) of 0.031.
